Results published in patent US9163256B2, “Mutant receptors and their use in a nuclear receptor-based inducible gene expression system” (priority 2004, dated 2015).

Legend:
Assay in all cases: cell-based
CfEcR-DEF mutant W238Y = CfEcR-DEF mutant W238Y (Choristoneura fumiferana, UniProt O77255, W521Y); conditions: for Emax: NIH3T3, 40 h, read-out: Rel Max FI
Protocol: (§1) This construct was prepared in the same way as in switch 1.1 above except wild-type CfEcR-DEF was replaced with mutant CfEcR-DEF comprising a ligand binding domain comprising a substitution mutation selected from Table 1 below.
(§2) DNAs were transfected into mouse NIH3T3 cells (ATCC) as follows. Standard methods for culture and maintenance of the cells were followed. Cells were harvested and plated 96-well plates at 2,500 cells per well, in 50 μL of growth medium containing 10% fetal bovine serum (FBS). Twenty-four hours later, the cells were treated with 35 μL of serum-free growth medium containing either dimethylsulfoxide (DMSO; control) or a DMSO solution of ligand. The cells were then transfected using Superfect (Qiagen Inc.) transfection reagent. For each well, 0.625 μL of Superfect was mixed with 14.2 μL of serum-free growth medium. 0.16 μg of reporter construct and 0.04 μg of each receptor construct were added to the transfection reagent mix. The contents of the transfection mix were mixed in a vortex mixer and let stand at room temperature for 30 minutes. At the end of incubation, 15 μL of transfection mix was added to the cells. The cells were maintained at 37° C. and 5% CO2 for 48 hours in 5% FBS.
(§3) Reporter Assays: Cells were harvested 40 hours after adding ligands. 125 μL of passive lysis buffer (part of Dual-Luciferase reporter assay system from Promega Corporation) were added to each well of the […] plate. The plates were placed on a rotary shaker for 15 minutes. Twenty μL of lysate were assayed. Luciferase activity was measured using Dual-Luciferase reporter assay system from Promega Corporation following the manufacturer's instructions. Fold induction (FI) activities were calculated by dividing relative light units (“RLU”) in ligand treated cells with RLU in DMSO treated cells (untreated control).

CfEcR-DEF mutant R95M = CfEcR-DEF mutant R95M (Choristoneura fumiferana, UniProt O77255, R378M); conditions: for Emax: NIH3T3, 40 h, read-out: Rel Max FI
Protocol: as §1, §2, §3

CfEcR-DEF mutant A110W = CfEcR-DEF mutant A110W (Choristoneura fumiferana, UniProt O77255, A393W); conditions: for Emax: NIH3T3, 40 h, read-out: Rel Max FI
Protocol: as §1, §2, §3

CfEcR-DEF mutant R95H = CfEcR-DEF mutant R95H (Choristoneura fumiferana, UniProt O77255, R378H); conditions: for Emax: NIH3T3, 40 h, read-out: Rel Max FI
Protocol: as §1, §2, §3

[1] = molecular target: CfEcR-DEF mutant N119F/V96T (Choristoneura fumiferana, UniProt O77255, N402F/V379T); conditions: for Emax: NIH3T3, 40 h, read-out: Rel Max FI
Chain of CfEcR-DEF mutant N119F/V96T (O77255 entry or part of it V379T/N402F): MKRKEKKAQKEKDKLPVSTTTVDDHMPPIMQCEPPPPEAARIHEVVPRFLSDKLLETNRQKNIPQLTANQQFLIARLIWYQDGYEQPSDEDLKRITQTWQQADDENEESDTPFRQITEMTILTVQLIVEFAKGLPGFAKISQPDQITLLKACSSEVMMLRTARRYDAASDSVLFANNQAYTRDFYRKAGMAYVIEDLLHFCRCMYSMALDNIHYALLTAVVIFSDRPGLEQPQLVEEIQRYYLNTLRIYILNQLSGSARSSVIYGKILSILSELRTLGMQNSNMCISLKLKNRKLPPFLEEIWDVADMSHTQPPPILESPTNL
Chain of CfEcR-DEF mutant N119F/V96T (P28702 299-449, further chain): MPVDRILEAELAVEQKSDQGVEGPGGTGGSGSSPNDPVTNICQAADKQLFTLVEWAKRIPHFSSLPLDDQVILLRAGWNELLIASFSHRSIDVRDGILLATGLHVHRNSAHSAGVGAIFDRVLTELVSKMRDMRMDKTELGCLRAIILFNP
Protocol: as §1, §2, §3

CfEcR-DEF mutant I51L = CfEcR-DEF mutant I51L (Choristoneura fumiferana, UniProt O77255, I334L); conditions: for Emax: NIH3T3, 40 h, read-out: Rel Max FI
Chain of CfEcR-DEF mutant I51L (O77255 entry or part of it I334L): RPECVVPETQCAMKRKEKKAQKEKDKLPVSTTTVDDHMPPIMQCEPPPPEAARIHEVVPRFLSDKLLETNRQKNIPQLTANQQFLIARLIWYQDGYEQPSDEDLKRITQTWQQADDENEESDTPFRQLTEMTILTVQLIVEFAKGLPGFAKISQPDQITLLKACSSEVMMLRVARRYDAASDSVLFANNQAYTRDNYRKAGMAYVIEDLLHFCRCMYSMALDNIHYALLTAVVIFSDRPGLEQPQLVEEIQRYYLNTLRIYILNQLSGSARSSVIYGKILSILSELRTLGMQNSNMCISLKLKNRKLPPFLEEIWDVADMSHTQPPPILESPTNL
Chain of CfEcR-DEF mutant I51L (P28702 299-449, further chain): as the sequence (P28702 299-449, further chain) above
Protocol: as §1, §2, §3

CfEcR-DEF mutant M125C = CfEcR-DEF mutant M125C (Choristoneura fumiferana, UniProt O77255, M408C); conditions: for EC50: EC50, mutant M125C; for Emax: NIH3T3, 40 h, read-out: Rel Max FI
Chain of CfEcR-DEF mutant M125C (O77255 entry or part of it M408C): as the sequence (O77255 entry or part of it I334L) above, with L128I, M202C counted along it
Chain of CfEcR-DEF mutant M125C (P28702 299-449, further chain): as the sequence (P28702 299-449, further chain) above
Protocol: as §1, §2, §3

CfEcR-DEF mutant V96W = CfEcR-DEF mutant V96W (Choristoneura fumiferana, UniProt O77255, V379W); conditions: for Emax: NIH3T3, 40 h, read-out: Rel Max FI
Protocol: as §1, §2, §3

CfEcR-DEF mutant R95W = CfEcR-DEF mutant R95W (Choristoneura fumiferana, UniProt O77255, R378W); conditions: for Emax: NIH3T3, 40 h, read-out: Rel Max FI
Chain of CfEcR-DEF mutant R95W (O77255 entry or part of it R378W): as the sequence (O77255 entry or part of it V379T/N402F) above, with R160W, T161V, F184N counted along it
Chain of CfEcR-DEF mutant R95W (P28702 299-449, further chain): as the sequence (P28702 299-449, further chain) above
Protocol: as §1, §2, §3

CfEcR-DEF mutant M125P = CfEcR-DEF mutant M125P (Choristoneura fumiferana, UniProt O77255, M408P); conditions: for Emax: NIH3T3, 40 h, read-out: Rel Max FI
Protocol: as §1, §2, §3

CfEcR-DEF mutant M125L = CfEcR-DEF mutant M125L (Choristoneura fumiferana, UniProt O77255, M408L); conditions: for Emax: NIH3T3, 40 h, read-out: Rel Max FI
Protocol: as §1, §2, §3

CfEcR-DEF mutant M92E = CfEcR-DEF mutant M92E (Choristoneura fumiferana, UniProt O77255, M375E); conditions: for Emax: NIH3T3, 40 h, read-out: Rel Max FI
Protocol: as §1, §2, §3

CfEcR-DEF mutant A110E = CfEcR-DEF mutant A110E (Choristoneura fumiferana, UniProt O77255, A393E); conditions: for Emax: NIH3T3, 40 h, read-out: Rel Max FI
Protocol: as §1, §2, §3

[2] = molecular target: CfEcR-DEF mutant V128F/A110P (Choristoneura fumiferana, UniProt O77255, A393P/V411F)
Protocol: as §1, §2, §3

CfEcR-DEF mutant M125E = CfEcR-DEF mutant M125E (Choristoneura fumiferana, UniProt O77255, M408E); conditions: for Emax: NIH3T3, 40 h, read-out: Rel Max FI
Chain of CfEcR-DEF mutant M125E (O77255 entry or part of it M408E): as the sequence (O77255 entry or part of it I334L) above, with L128I, M202E counted along it
Chain of CfEcR-DEF mutant M125E (P28702 299-449, further chain): as the sequence (P28702 299-449, further chain) above
Protocol: as §1, §2, §3

CfEcR-DEF mutant F109W = CfEcR-DEF mutant F109W (Choristoneura fumiferana, UniProt O77255, F392W); conditions: for Emax: NIH3T3, 40 h, read-out: Rel Max FI
Chain of CfEcR-DEF mutant F109W (O77255 entry or part of it F392W): as the sequence (O77255 entry or part of it I334L) above, with L128I, F186W counted along it
Chain of CfEcR-DEF mutant F109W (P28702 299-449, further chain): as the sequence (P28702 299-449, further chain) above
Protocol: as §1, §2, §3

CfEcR-DEF mutant W238P = CfEcR-DEF mutant W238P (Choristoneura fumiferana, UniProt O77255, W521P); conditions: for Emax: NIH3T3, 40 h, read-out: Rel Max FI
Protocol: as §1, §2, §3

CfEcR-DEF mutant F109L = CfEcR-DEF mutant F109L (Choristoneura fumiferana, UniProt O77255, F392L); conditions: for Emax: NIH3T3, 40 h, read-out: Rel Max FI
Protocol: as §1, §2, §3

CfEcR-DEF mutant L132V = CfEcR-DEF mutant L132V (Choristoneura fumiferana, UniProt O77255, L415V); conditions: for Emax: NIH3T3, 40 h, read-out: Rel Max FI
Chain of CfEcR-DEF mutant L132V (O77255 entry or part of it L415V): as the sequence (O77255 entry or part of it I334L) above, with L128I, L209V counted along it
Chain of CfEcR-DEF mutant L132V (P28702 298-449, further chain): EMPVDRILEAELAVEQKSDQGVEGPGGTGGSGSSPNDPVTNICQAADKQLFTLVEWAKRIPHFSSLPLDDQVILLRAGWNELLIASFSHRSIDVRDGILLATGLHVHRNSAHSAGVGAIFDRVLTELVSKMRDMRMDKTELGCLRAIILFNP
Protocol: as §1, §2, §3

CfEcR-DEF mutant Y120W = CfEcR-DEF mutant Y120W (Choristoneura fumiferana, UniProt O77255, Y403W); conditions: for Emax: NIH3T3, 40 h, read-out: Rel Max FI
Chain of CfEcR-DEF mutant Y120W (O77255 entry or part of it Y403W): as the sequence (O77255 entry or part of it V379T/N402F) above, with T161V, F184N, Y185W counted along it
Chain of CfEcR-DEF mutant Y120W (P28702 299-449, further chain): as the sequence (P28702 299-449, further chain) above
Protocol: as §1, §2, §3

CfEcR-DEF mutant M54T = CfEcR-DEF mutant M54T (Choristoneura fumiferana, UniProt O77255, M337T); conditions: for Emax: NIH3T3, 40 h, read-out: Rel Max FI
Chain of CfEcR-DEF mutant M54T (O77255 entry or part of it M337T): as the sequence (O77255 entry or part of it I334L) above, with L128I, M131T counted along it
Chain of CfEcR-DEF mutant M54T (P28702 299-449, further chain): as the sequence (P28702 299-449, further chain) above
Protocol: as §1, §2, §3

SMILES: CCc1cccc(C(=O)NN(C(=O)c2cc(C)cc(C)c2)C(C)(C)C)c1C [RG-101691, 3,5-Dimethyl-benzoic acid N-tert-butyl-N′-(3-ethyl-2-methyl-benzoyl)-hydrazide]
- EC50 (CfEcR-DEF mutant W238Y): > 33 µM
- Emax (CfEcR-DEF mutant W238Y): 30%
- EC50 (CfEcR-DEF mutant R95M): 3.3 µM
- Emax (CfEcR-DEF mutant R95M): 57%
- EC50 (CfEcR-DEF mutant A110W): 1.06 µM
- Emax (CfEcR-DEF mutant A110W): 80%
- EC50 (CfEcR-DEF mutant R95H): 3.9 µM
- Emax (CfEcR-DEF mutant R95H): 96%
- EC50 [1]: 3.63 µM
- Emax [1]: 13%
- EC50 (CfEcR-DEF mutant I51L): 2.28 µM
- Emax (CfEcR-DEF mutant I51L): 88%
- EC50 (CfEcR-DEF mutant M125C): ≥ 33 µM
- Emax (CfEcR-DEF mutant M125C): 62%
- EC50 (CfEcR-DEF mutant V96W): 3.61 µM
- Emax (CfEcR-DEF mutant V96W): 75%
- EC50 (CfEcR-DEF mutant R95W): ~10 µM
- Emax (CfEcR-DEF mutant R95W): 37%
- EC50 (CfEcR-DEF mutant M125P): > 33 µM
- Emax (CfEcR-DEF mutant M125P): 525%
- EC50 (CfEcR-DEF mutant M125L): > 33 µM
- Emax (CfEcR-DEF mutant M125L): 0%
- EC50 (CfEcR-DEF mutant M92E): ~20 µM
- Emax (CfEcR-DEF mutant M92E): 8%
- EC50 (CfEcR-DEF mutant A110E): 0.85 µM
- Emax (CfEcR-DEF mutant A110E): 103%
- EC50 [2]: ~5 µM
- Emax ([2]; NIH3T3, 40 h, read-out: Rel Max FI): 8%
- Rel Max FI ([2]; mutant V128F/A110P, 2400 min): 0.08
- EC50 (CfEcR-DEF mutant M125E): 0.98 µM
- Emax (CfEcR-DEF mutant M125E): 53%
- EC50 (CfEcR-DEF mutant F109W): 0.49 µM
- Emax (CfEcR-DEF mutant F109W): 79%
- EC50 (CfEcR-DEF mutant W238P): 0.65 µM
- Emax (CfEcR-DEF mutant W238P): 91%
- EC50 (CfEcR-DEF mutant F109L): 2.34 µM
- Emax (CfEcR-DEF mutant F109L): 68%
- EC50 (CfEcR-DEF mutant L132V): 0.66 µM
- Emax (CfEcR-DEF mutant L132V): 77%
- EC50 (CfEcR-DEF mutant Y120W): 9.76 µM
- Emax (CfEcR-DEF mutant Y120W): 89%
- EC50 (CfEcR-DEF mutant M54T): 0.03 µM
- Emax (CfEcR-DEF mutant M54T): 71%

SMILES: Cc1cc(C)cc(C(=O)N(NC(=O)c2cccc(C(C)C)c2C)C(C)(C)C)c1 [RG-102362, 3,5-Dimethyl-benzoic acid N-tert-butyl-N′-(3-isopropyl-2-methyl-benzoyl)-hydrazide]
- EC50 (CfEcR-DEF mutant W238Y): > 33 µM
- Emax (CfEcR-DEF mutant W238Y): 6%
- EC50 (CfEcR-DEF mutant R95M): 4.28 µM
- Emax (CfEcR-DEF mutant R95M): 27%
- EC50 (CfEcR-DEF mutant A110W): 2.99 µM
- Emax (CfEcR-DEF mutant A110W): 55%
- EC50 (CfEcR-DEF mutant R95H): 3.49 µM
- Emax (CfEcR-DEF mutant R95H): 62%
- EC50 [1]: ~10 µM
- Emax [1]: 19%
- EC50 (CfEcR-DEF mutant I51L): 3.35 µM
- Emax (CfEcR-DEF mutant I51L): 53%
- EC50 (CfEcR-DEF mutant M125C): ≥ 33 µM
- Emax (CfEcR-DEF mutant M125C): 15%
- EC50 (CfEcR-DEF mutant V96W): 3.26 µM
- Emax (CfEcR-DEF mutant V96W): 38%
- EC50 (CfEcR-DEF mutant R95W): ~8 µM
- Emax (CfEcR-DEF mutant R95W): 25%
- EC50 (CfEcR-DEF mutant M125P): > 33 µM
- Emax (CfEcR-DEF mutant M125P): 78%
- EC50 (CfEcR-DEF mutant M125L): > 33 µM
- Emax (CfEcR-DEF mutant M125L): 1%
- EC50 (CfEcR-DEF mutant M92E): > 33 µM
- Emax (CfEcR-DEF mutant M92E): 4%
- EC50 (CfEcR-DEF mutant A110E): 1.02 µM
- Emax (CfEcR-DEF mutant A110E): 78%
- EC50 (CfEcR-DEF mutant M125E): 0.83 µM
- Emax (CfEcR-DEF mutant M125E): 40%
- EC50 (CfEcR-DEF mutant F109W): 1.41 µM
- Emax (CfEcR-DEF mutant F109W): 70%
- EC50 (CfEcR-DEF mutant W238P): 0.29 µM
- Emax (CfEcR-DEF mutant W238P): 40%
- EC50 (CfEcR-DEF mutant F109L): ~2.5 µM
- Emax (CfEcR-DEF mutant F109L): 17%
- EC50 (CfEcR-DEF mutant L132V): 0.29 µM
- Emax (CfEcR-DEF mutant L132V): 74%
- EC50 (CfEcR-DEF mutant Y120W): 4.96 µM
- Emax (CfEcR-DEF mutant Y120W): 67%
- EC50 (CfEcR-DEF mutant M54T): 0.05 µM
- Emax (CfEcR-DEF mutant M54T): 66%
